Assay results as given in article PMC8201324, “Pyrazoles and Pyrazolines as Anti-Inflammatory Agents” (Molecules, 2021).
Where two headings read alike, the source gives them in different places. Marks after values point to notes of the source that are not given here. Each block holds one compound with its values, some of them ahead of it.

Assays:
soybean lipoxygenase [1] = biological target: T1, soybean lipoxygenase (Glycine max, UniProt P08170); test: Soybean lipoxygenase inhibition study; assay type: biochemical; settings: sodium linoleate 0.1 mM; for inhibition at 100 µM / LOX % Inhibition at 100 µM: compound 100 µM; for inhibition at 100 µM: read-out: LOX % Inhibition at 100 µM
T1 construct: purchased Sigma Chemical, Co
T1 sequence (P08170 1-839): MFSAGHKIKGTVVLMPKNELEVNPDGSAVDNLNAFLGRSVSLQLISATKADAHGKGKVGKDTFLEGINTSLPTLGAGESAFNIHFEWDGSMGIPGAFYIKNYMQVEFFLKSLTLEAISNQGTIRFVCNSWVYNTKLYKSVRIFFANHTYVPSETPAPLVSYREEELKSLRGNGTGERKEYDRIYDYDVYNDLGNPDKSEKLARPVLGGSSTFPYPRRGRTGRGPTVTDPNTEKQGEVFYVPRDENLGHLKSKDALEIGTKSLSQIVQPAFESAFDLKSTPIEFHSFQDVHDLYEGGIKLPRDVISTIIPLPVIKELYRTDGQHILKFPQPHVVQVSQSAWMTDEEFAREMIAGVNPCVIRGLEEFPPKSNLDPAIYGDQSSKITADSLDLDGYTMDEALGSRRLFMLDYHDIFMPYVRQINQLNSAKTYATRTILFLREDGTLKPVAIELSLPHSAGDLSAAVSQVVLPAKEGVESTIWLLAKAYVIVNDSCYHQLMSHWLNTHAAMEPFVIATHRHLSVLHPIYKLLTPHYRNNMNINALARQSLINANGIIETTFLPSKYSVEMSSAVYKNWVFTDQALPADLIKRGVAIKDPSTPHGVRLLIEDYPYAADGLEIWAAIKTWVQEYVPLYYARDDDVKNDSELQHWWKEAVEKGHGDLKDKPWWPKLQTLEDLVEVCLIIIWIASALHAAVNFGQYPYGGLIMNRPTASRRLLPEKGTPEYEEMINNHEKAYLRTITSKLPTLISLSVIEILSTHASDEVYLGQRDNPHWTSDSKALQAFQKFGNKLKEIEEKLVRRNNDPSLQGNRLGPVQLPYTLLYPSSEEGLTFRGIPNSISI
Description: Lipoxygenase (LOX) is the key enzyme implicated in membrane lipid peroxidation by forming hydroperoxides, thus it is considered a target for inflammatory diseases. […] For the in vitro study, soybean lipoxygenase was used, based on the homology to mammalian lipoxygenase. […] A stock solution (1% DMSO in the appropriate buffer with the tested compound diluted under sonication) was prepared for the in vitro assays from which several dilutions were made with the appropriate buffer. […] The stock solutions of the compounds were incubated with sodium linoleate (0.1 mM) and 0.2 mL of soybean lipoxygenase solution (1/9 × 10^-4 w/v in saline) at room temperature. In vitro test was performed as previously published.

[2] = system: acetic acid-induced writhing; test: Anti-nociception writhing test (acetic acid); assay type: in vivo, Fisher 344 rats; settings: 0.0057 mmol/kg body weight i.p., 0.6% acetic acid after 30 min
From the text: The acetic acid-induced writhing test is a quick, simple and reproducible method, despite the fact that it lacks specialization. […] The animals (Fisher 344 rats), were housed under standard conditions, and received a diet of commercial food pellets and water ad libitum during the maintenance, but were entirely fasted during the experiment period. Both sexes were used, while pregnant females were excluded. Each group was composed of 6–15 animals. Our studies were in accordance with recognized guidelines on animal experimentation (guidelines for the care and use of laboratory animals published by the Greek Government 160/1991, based on EU regulations 86/609). Rats were kept in the Centre of the School of Veterinary Medicine (EL54 BIO42), Aristotle University of Thessaloniki, which is registered by the official state veterinary authorities (presidential degree 56/2013, in harmony with the European Directive 2010/63/EEC). The experimental protocols were approved by the Animal Ethics Committee of the Prefecture of Central Macedonia. For the study of the analgesic activity of the tested compounds, pain is provoked with acetic acid. Animals were divided in three five-membered groups, according to our reported method. After treatment with the tested compounds (0.0057 mmol/kg body weight; intraperitoneally) in the first group, the second group was used as a positive control (aspirin; 0.0057 mmol/kg body weight i.p.) and the third group served as the control in which saline was administered (negative control). After 30 min, 0.6% acetic acid (1 mL/kg body weight) was injected i.p. The number of writhes was recorded for each animal every 5 min during a subsequent 30 min period (Table 6).

soybean lipoxygenase [3] = biological target: T1, soybean lipoxygenase; test: Soybean lipoxygenase inhibition study; assay type: biochemical

Compound: 5-(4-((4-bromobenzyl)oxy)phenyl)-3-(4-chlorophenyl)-4,5-dihydro-1H-pyrazole [Compound 2e]
- LOX % Inhibition at 100 µM (soybean lipoxygenase [1]): 16%
- Writhing Inhibition (%) [2]: 66.1 * %

Compound: c1ccc(C2=NNC(c3cccc4ccccc34)C2)cc1 (stereo not shown) [Compound 2a, 5-(naphthalen-1-yl)-3-phenyl-4,5-dihydro-1H-pyrazole]
- inhibition at 100 µM (soybean lipoxygenase [1]): 35%

Compound: Clc1ccc(C2=NNC(c3ccc4[nH]ccc4c3)C2)cc1 (stereo not shown) [Compound 2b, 5-(3-(4-chlorophenyl)-4,5-dihydro-1H-pyrazol-5-yl)-1H-indole]
- inhibition at 100 µM (soybean lipoxygenase [1]): 17%

Compound: Brc1ccc(COc2ccc(C3CC(c4ccccc4)=NN3)cc2)cc1 (stereo not shown) [Compound 2d, 5-(4-((4-bromobenzyl)oxy)phenyl)-3-phenyl-4,5-dihydro-1H-pyrazole]
- inhibition at 100 µM (soybean lipoxygenase [1]): 13%
- Writhing Inhibition (%) [2]: 54.2 * %

More lines, now with the values ahead:

- inhibition at 100 µM (soybean lipoxygenase [1]): 3%
Compound: CC(=O)n1nc(-c2ccccc2)cc1-c1ccc2[nH]ccc2c1 [Compound 2f, 1-(5-(1H-indol-5-yl)-3-phenyl-1H-pyrazol-1-yl)ethan-1-one]

- inhibition at 100 µM (soybean lipoxygenase [1]): 26%
Compound: CC(=O)n1nc(-c2ccccc2)cc1-c1cccc(Oc2ccccc2)c1 [Compound 2h, 1-(5-(3-phenoxyphenyl)-3-phenyl-1H-pyrazol-1-yl)ethan-1-one]

- inhibition at 100 µM (soybean lipoxygenase [1]): 60%
- IC50 (soybean lipoxygenase [1]; soybean lipoxygenase, read-out: LOX IC50): 80 µM
- inhibition at 100 µM (soybean lipoxygenase [3]; compound 100 µM, linoleic acid sodium salt 50 µM, read-out: LOX % Inhibition 100 µM, LLA 50 µM): 89.6%
- type of LOX inhibition (soybean lipoxygenase [3]; varying sodium linoleate concentration, enzyme and compound kept stable): competitive inhibition
Compound: CC(=O)n1nc(-c2ccc(Cl)cc2)cc1-c1cccc2ccccc12 [Compound 2g, 1-(3-(4-chlorophenyl)-5-(naphthalen-1-yl)-1H-pyrazol-1-yl)ethan-1-one]

- LOX % Inhibition at 100 µM (soybean lipoxygenase [1]): 42%
Compound: 1-(5-(4-((4-bromobenzyl)oxy)phenyl)-3-(thiophen-2-yl)-1H-pyrazol-1-yl)ethan-1-one [Compound 2c]
